Experimental data: ChEMBL document CHEMBL3352489, “6-Hydroxyquinolinium salts differing in the length of alkyl side-chain: synthesis and antimicrobial activity” (Bioorg Med Chem Lett, 2014)
One block for each compound: values may come before it.

Assays:
[1] = tested on: Staphylococcus epidermidis; assay: microbe, parasite or virus in culture; format: functional; conditions: H 6966/08, 48 h
Description: Antibacterial activity against Staphylococcus epidermidis H 6966/08 after 48 hrs by microdilution broth method

Enterococcus sp. [2] = assay: microbe, parasite or virus in culture; format: functional; conditions: J 14365/08, 48 h
Description: Antibacterial activity against Enterococcus sp. J 14365/08 after 48 hrs by microdilution broth method

Klebsiella pneumoniae [3] = assay: microbe, parasite or virus in culture; format: functional; conditions: D 11750/08, 48 h
Description: Antibacterial activity against Klebsiella pneumoniae D 11750/08 after 48 hrs by microdilution broth method

Klebsiella pneumoniae [4] = assay: microbe, parasite or virus in culture; format: functional; conditions: D 11750/08, 24 h
Description: Antibacterial activity against Klebsiella pneumoniae D 11750/08 after 24 hrs by microdilution broth method

Enterococcus sp. [5] = assay: Bactericidal activity against Enterococcus sp. J 14365/08 after 48 hrs by microdilution broth method; format: functional; conditions: J 14365/08, 48 h, read-out: MBC>99.9
[6] = tested on: Trichophyton mentagrophytes; assay: Fungicidal activity against Trichophyton mentagrophytes 445 after 120 hrs by modified standard CSLI M27-A2 method; format: functional; conditions: Trichophyton mentagrophytes, 445, 120 h
Pseudomonas aeruginosa [7] = assay: microbe, parasite or virus in culture; format: functional; conditions: CCM 1961, 120 h
Description: Antibacterial activity against Pseudomonas aeruginosa CCM 1961 after 120 hrs by microdilution broth method

Klebsiella pneumoniae [8] = assay: microbe, parasite or virus in culture; format: functional; conditions: J 14368/08, 24 h
Description: Antibacterial activity against Klebsiella pneumoniae J 14368/08 after 24 hrs by microdilution broth method

Staphylococcus aureus [9] = assay: Bactericidal activity against Staphylococcus aureus CCM 4516/08 after 48 hrs by microdilution broth method; format: functional; conditions: CCM 4516/08, 48 h, read-out: MBC>99.9
[10] = tested on: Trichophyton mentagrophytes; assay: microbe, parasite or virus in culture; format: functional; conditions: Trichophyton mentagrophytes, 445, 120 h
Description: Antifungal activity against Trichophyton mentagrophytes 445 after 120 hrs by modified standard CSLI M27-A2 method

Pseudomonas aeruginosa [11] = assay: Bactericidal activity against Pseudomonas aeruginosa CCM 1961 after 120 hrs by microdilution broth method; format: functional; conditions: CCM 1961, 120 h, read-out: MBC>99.9
Staphylococcus aureus [12] = assay: Bactericidal activity against Staphylococcus aureus H 5996/08 after 48 hrs by microdilution broth method; format: functional; conditions: H 5996/08, 48 h, read-out: MBC>99.9
Lichtheimia corymbifera [13] = assay: microbe, parasite or virus in culture; format: functional; conditions: Lichtheimia corymbifera, 272, 48 h
Description: Antifungal activity against Absidia corymbifera 272 after 48 hrs by modified standard CSLI M27-A2 method

Staphylococcus aureus [14] = assay: microbe, parasite or virus in culture; format: functional; conditions: H 5996/08, 24 h
Description: Antibacterial activity against Staphylococcus aureus H 5996/08 after 24 hrs by microdilution broth method

Nakaseomyces glabratus [15] = assay: Fungicidal activity against Candida glabrata 20/I after 48 hrs by modified standard CSLI M27-A2 method; format: functional
Klebsiella pneumoniae [16] = assay: Bactericidal activity against Klebsiella pneumoniae D 11750/08 after 24 hrs by microdilution broth method; format: functional; conditions: D 11750/08, 24 h, read-out: MBC>99.9
[17] = tested on: Trichophyton mentagrophytes; assay: microbe, parasite or virus in culture; format: functional; conditions: Trichophyton mentagrophytes, 445, 72 h
Description: Antifungal activity against Trichophyton mentagrophytes 445 after 72 hrs by modified standard CSLI M27-A2 method

Candida tropicalis [18] = assay: microbe, parasite or virus in culture; format: functional; conditions: Candida tropicalis, 156, 48 h
Description: Antifungal activity against Candida tropicalis 156 after 48 hrs by modified standard CSLI M27-A2 method

Enterococcus sp. [19] = assay: microbe, parasite or virus in culture; format: functional; conditions: J 14365/08, 24 h
Description: Antibacterial activity against Enterococcus sp. J 14365/08 after 24 hrs by microdilution broth method

Candida tropicalis [20] = assay: microbe, parasite or virus in culture; format: functional; conditions: Candida tropicalis, 156, 24 h
Description: Antifungal activity against Candida tropicalis 156 after 24 hrs by modified standard CSLI M27-A2 method

Candida albicans [21] = assay: Fungicidal activity against Candida albicans ATCC 44859 after 48 hrs by modified standard CSLI M27-A2 method; format: functional; conditions: ATCC 44859, 48 h
Staphylococcus aureus [22] = assay: microbe, parasite or virus in culture; format: functional; conditions: CCM 4516/08, 48 h
Description: Antibacterial activity against Staphylococcus aureus CCM 4516/08 after 48 hrs by microdilution broth method

Escherichia coli [23] = assay: microbe, parasite or virus in culture; format: functional; conditions: CCM 4517, 48 h
Description: Antibacterial activity against Escherichia coli CCM 4517 after 48 hrs by microdilution broth method

Aspergillus fumigatus [24] = assay: microbe, parasite or virus in culture; format: functional; conditions: Aspergillus fumigatus, 231, 48 h
Description: Antifungal activity against Aspergillus fumigatus 231 after 48 hrs by modified standard CSLI M27-A2 method

Pichia kudriavzevii [25] = assay: Antifungal activity against Candida krusei E28 after 48 hrs by modified standard CSLI M27-A2 method; format: functional; conditions: E28, 48 h
Nakaseomyces glabratus [26] = assay: Antifungal activity against Candida glabrata 20/I after 24 hrs by modified standard CSLI M27-A2 method; format: functional
Pichia kudriavzevii [27] = assay: Antifungal activity against Candida krusei E28 after 24 hrs by modified standard CSLI M27-A2 method; format: functional; conditions: E28, 24 h
Escherichia coli [28] = assay: Bactericidal activity against Escherichia coli CCM 4517 after 48 hrs by microdilution broth method; format: functional; conditions: CCM 4517, 48 h, read-out: MBC>99.9
Lichtheimia corymbifera [29] = assay: Fungicidal activity against Absidia corymbifera 272 after 48 hrs by modified standard CSLI M27-A2 method; format: functional; conditions: Lichtheimia corymbifera, 272, 48 h
Pichia kudriavzevii [30] = assay: Fungicidal activity against Candida krusei E28 after 48 hrs by modified standard CSLI M27-A2 method; format: functional; conditions: E28, 48 h
Staphylococcus aureus [31] = assay: microbe, parasite or virus in culture; format: functional; conditions: H 5996/08, 48 h
Description: Antibacterial activity against Staphylococcus aureus H 5996/08 after 48 hrs by microdilution broth method

Aspergillus fumigatus [32] = assay: Fungicidal activity against Aspergillus fumigatus 231 after 48 hrs by modified standard CSLI M27-A2 method; format: functional; conditions: Aspergillus fumigatus, 231, 48 h
Aspergillus fumigatus [33] = assay: microbe, parasite or virus in culture; format: functional; conditions: Aspergillus fumigatus, 231, 24 h
Description: Antifungal activity against Aspergillus fumigatus 231 after 24 hrs by modified standard CSLI M27-A2 method

Trichosporon asahii [34] = assay: microbe, parasite or virus in culture; format: functional; conditions: Trichosporon asahii, 1188, 48 h
Description: Antifungal activity against Trichosporon asahii 1188 after 48 hrs by modified standard CSLI M27-A2 method

Trichosporon asahii [35] = assay: Fungicidal activity against Trichosporon asahii 1188 after 48 hrs by modified standard CSLI M27-A2 method; format: functional; conditions: Trichosporon asahii, 1188, 48 h
Candida albicans [36] = assay: microbe, parasite or virus in culture; format: functional; conditions: ATCC 44859, 48 h
Description: Antifungal activity against Candida albicans ATCC 44859 after 48 hrs by modified standard CSLI M27-A2 method

Nakaseomyces glabratus [37] = assay: Antifungal activity against Candida glabrata 20/I after 48 hrs by modified standard CSLI M27-A2 method; format: functional
[38] = Cytotoxicity against CHOK1 cells after 24 hrs by MTT assay; format: ADME, cell-based; conditions: Cricetulus griseus, CHO-K1, 24 h
Candida tropicalis [39] = assay: Fungicidal activity against Candida tropicalis 156 after 48 hrs by modified standard CSLI M27-A2 method; format: functional; conditions: Candida tropicalis, 156, 48 h
Pseudomonas aeruginosa [40] = assay: microbe, parasite or virus in culture; format: functional; conditions: CCM 1961, 72 h
Description: Antibacterial activity against Pseudomonas aeruginosa CCM 1961 after 72 hrs by microdilution broth method

Staphylococcus aureus [41] = assay: microbe, parasite or virus in culture; format: functional; conditions: CCM 4516/08, 24 h
Description: Antibacterial activity against Staphylococcus aureus CCM 4516/08 after 24 hrs by microdilution broth method

Lichtheimia corymbifera [42] = assay: microbe, parasite or virus in culture; format: functional; conditions: Lichtheimia corymbifera, 272, 24 h
Description: Antifungal activity against Absidia corymbifera 272 after 24 hrs by modified standard CSLI M27-A2 method

Klebsiella pneumoniae [43] = assay: Bactericidal activity against Klebsiella pneumoniae J 14368/08 after 48 hrs by microdilution broth method; format: functional; conditions: J 14368/08, 48 h, read-out: MBC>99.9
[44] = tested on: Staphylococcus epidermidis; assay: Bactericidal activity against Staphylococcus epidermidis H 6966/08 after 48 hrs by microdilution broth method; format: functional; conditions: H 6966/08, 48 h, read-out: MBC>99.9
Trichosporon asahii [45] = assay: microbe, parasite or virus in culture; format: functional; conditions: Trichosporon asahii, 1188, 24 h
Description: Antifungal activity against Trichosporon asahii 1188 after 24 hrs by modified standard CSLI M27-A2 method

Klebsiella pneumoniae [46] = assay: microbe, parasite or virus in culture; format: functional; conditions: J 14368/08, 48 h
Description: Antibacterial activity against Klebsiella pneumoniae J 14368/08 after 48 hrs by microdilution broth method

Candida albicans [47] = assay: microbe, parasite or virus in culture; format: functional; conditions: ATCC 44859, 24 h
Description: Antifungal activity against Candida albicans ATCC 44859 after 24 hrs by modified standard CSLI M27-A2 method

[48] = tested on: Staphylococcus epidermidis; assay: microbe, parasite or virus in culture; format: functional; conditions: H 6966/08, 24 h
Description: Antibacterial activity against Staphylococcus epidermidis H 6966/08 after 24 hrs by microdilution broth method

Escherichia coli [49] = assay: microbe, parasite or virus in culture; format: functional; conditions: CCM 4517, 24 h
Description: Antibacterial activity against Escherichia coli CCM 4517 after 24 hrs by microdilution broth method

[50] = Retention time of the compound by isocratic elution based HPLC method; format: physicochemical
[51] = Retention time of the compound by gradient elution based HPLC method; format: physicochemical

SMILES: CCCCCCCCCCCC[n+]1ccccc1
MIC95 [1]: 3.91 µM
MIC95 (Enterococcus sp. [2]): 3.91 µM
MIC95 (Klebsiella pneumoniae [3]): 7.81 µM
MIC95 (Klebsiella pneumoniae [4]): 3.91 µM
MBC (Enterococcus sp. [5]): 3.91 µM
MFC [6]: 3.91 µM
MIC95 (Pseudomonas aeruginosa [7]): 7.81 µM
MIC95 (Klebsiella pneumoniae [8]): 7.81 µM
MBC (Staphylococcus aureus [9]): 1.95 µM
MIC [10]: 3.91 µM
MBC (Pseudomonas aeruginosa [11]): 7.81 µM
MBC (Staphylococcus aureus [12]): 3.91 µM
MIC (Lichtheimia corymbifera [13]): 125 µM
MIC95 (Staphylococcus aureus [14]): 3.91 µM
MFC (Nakaseomyces glabratus [15]): 0.49 µM
MBC (Klebsiella pneumoniae [16]): 7.81 µM
MIC [17]: 1.95 µM
MIC (Candida tropicalis [18]): 1.95 µM
MIC95 (Enterococcus sp. [19]): 1.95 µM
MIC (Candida tropicalis [20]): 0.49 µM
MFC (Candida albicans [21]): 1.95 µM
MIC95 (Staphylococcus aureus [22]): 1.95 µM
MIC95 (Escherichia coli [23]): 3.91 µM
MIC (Aspergillus fumigatus [24]): 31.2 µM
MIC (Pichia kudriavzevii [25]): 0.49 µM
MIC (Nakaseomyces glabratus [26]): 0.49 µM
MIC (Pichia kudriavzevii [27]): 0.49 µM
MBC (Escherichia coli [28]): 3.91 µM
MFC (Lichtheimia corymbifera [29]): 250 µM
MFC (Pichia kudriavzevii [30]): 0.49 µM
MIC95 (Staphylococcus aureus [31]): 3.91 µM
MFC (Aspergillus fumigatus [32]): 31.2 µM
MIC (Aspergillus fumigatus [33]): 3.91 µM
MIC (Trichosporon asahii [34]): 15.6 µM
MFC (Trichosporon asahii [35]): 15.6 µM
MIC (Candida albicans [36]): 1.95 µM
MIC (Nakaseomyces glabratus [37]): 0.49 µM
IC50 [38]: 39 µM
MFC (Candida tropicalis [39]): 3.91 µM
MIC95 (Pseudomonas aeruginosa [40]): 7.81 µM
MIC95 (Staphylococcus aureus [41]): 0.49 µM
MIC (Lichtheimia corymbifera [42]): 62.5 µM
MBC (Klebsiella pneumoniae [43]): 7.81 µM
MBC [44]: 3.91 µM
MIC (Trichosporon asahii [45]): 7.81 µM
MIC95 (Klebsiella pneumoniae [46]): 7.81 µM
MIC (Candida albicans [47]): 0.98 µM
MIC95 [48]: 0.98 µM
MIC95 (Escherichia coli [49]): 1.95 µM

SMILES: CCCCCCCCCCCCCC[n+]1ccccc1
MIC95 [1]: 0.49 µM
MIC95 (Enterococcus sp. [2]): 1.95 µM
MIC95 (Klebsiella pneumoniae [3]): 15.6 µM
MIC95 (Klebsiella pneumoniae [4]): 15.6 µM
MBC (Enterococcus sp. [5]): 15.6 µM
MFC [6]: 31.2 µM
MIC95 (Pseudomonas aeruginosa [7]): 125 µM
MIC95 (Klebsiella pneumoniae [8]): 7.81 µM
MBC (Staphylococcus aureus [9]): 3.91 µM
MIC [10]: 15.6 µM
MBC (Pseudomonas aeruginosa [11]): 125 µM
MBC (Staphylococcus aureus [12]): 3.91 µM
MIC (Lichtheimia corymbifera [13]): 125 µM
MIC95 (Staphylococcus aureus [14]): 3.91 µM
MFC (Nakaseomyces glabratus [15]): 250 µM
MBC (Klebsiella pneumoniae [16]): 15.6 µM
MIC [17]: 15.6 µM
MIC (Candida tropicalis [18]): 1.95 µM
MIC95 (Enterococcus sp. [19]): 1.95 µM
MIC (Candida tropicalis [20]): 1.95 µM
MFC (Candida albicans [21]): 125 µM
MIC95 (Staphylococcus aureus [22]): 0.98 µM
MIC95 (Escherichia coli [23]): 7.81 µM
MIC (Aspergillus fumigatus [24]): 31.2 µM
MIC (Pichia kudriavzevii [25]): 0.98 µM
MIC (Nakaseomyces glabratus [26]): 1.95 µM
MIC (Pichia kudriavzevii [27]): 0.98 µM
MBC (Escherichia coli [28]): 7.81 µM
MFC (Lichtheimia corymbifera [29]): 250 µM
MFC (Pichia kudriavzevii [30]): 250 µM
MIC95 (Staphylococcus aureus [31]): 3.91 µM
MFC (Aspergillus fumigatus [32]): 250 µM
MIC (Aspergillus fumigatus [33]): 15.6 µM
MIC (Trichosporon asahii [34]): 31.2 µM
MFC (Trichosporon asahii [35]): 250 µM
MIC (Candida albicans [36]): 7.81 µM
MIC (Nakaseomyces glabratus [37]): 1.95 µM
IC50 [38]: 25 µM
MFC (Candida tropicalis [39]): 250 µM
MIC95 (Pseudomonas aeruginosa [40]): 125 µM
MIC95 (Staphylococcus aureus [41]): 0.98 µM
MIC (Lichtheimia corymbifera [42]): 125 µM
MBC (Klebsiella pneumoniae [43]): 7.81 µM
MBC [44]: 0.49 µM
MIC (Trichosporon asahii [45]): 31.2 µM
MIC95 (Klebsiella pneumoniae [46]): 7.81 µM
MIC (Candida albicans [47]): 7.81 µM
MIC95 [48]: 0.49 µM
MIC95 (Escherichia coli [49]): 7.81 µM

Retention_time [50]: 7.06 min
Retention_time [51]: 11.47 min
SMILES: CCCCCCCCCCCCCCCCCC[n+]1cccc2cc(O)ccc21.[Br-]
